Measured values from ChEMBL document CHEMBL3045513, “Design, synthesis, and biological evaluation of novel 2,4-thiazolidinedione derivatives as histone deacetylase inhibitors targeting liver cancer cell line” (Med Chem Res, 2012).
The source made the active and inactive calls. The rule behind the calls is not given here.

Tests used:
[1] = Cytotoxicity against Homo sapiens (human) WRL68 cells at 100 uM after 48 hr by MTT assay; type: cell-based; details: read-out: INH
[2] = molecular target: T1, Histone deacetylase (Homo sapiens) (UniProt Q13547+O15379+Q9UBN7+Q92769+Q9UQL6+Q8WUI4+Q9BY41+Q96DB2+P56524+Q9UKV0+Q969S8); assay: Inhibition of histone deacetylase in Homo sapiens (human) HepG2 nuclear extract assessed as hyperacetylation of H4 at 100 uM after 8 hr by TAU PAGE analysis; type: protein assay
[3] = Cytotoxicity against Homo sapiens (human) WRL68 cells at 100 uM after 120 hr by MTT assay; type: cell-based; details: read-out: INH
[4] = molecular target: T1, Histone deacetylase (Homo sapiens); assay: Inhibition of histone deacetylase in Homo sapiens (human) HepG2 cells assessed as hyperacetylation of H3 at 100 uM after 8 hr by Western blot analysis; type: cell-based
[5] = test system: HepG2; assay: Antiproliferative activity against Homo sapiens (human) HepG2 cells assessed as elongated shaped cells; type: functional, cell-based
[6] = test system: HepG2; assay: Antiproliferative activity against Homo sapiens (human) HepG2 cells at 100 uM after 120 hr by MTT assay; type: functional; details: HepG2, 120 h
[7] = molecular target: T1, Histone deacetylase (Homo sapiens); assay: Inhibition of histone deacetylase in Homo sapiens (human) HepG2 nuclear extract assessed as low level acetylation of H2A at 100 uM after 8 hr by TAU PAGE analysis; type: protein assay
[8] = molecular target: T1, Histone deacetylase (Homo sapiens); assay: Inhibition of histone deacetylase in Homo sapiens (human) HepG2 nuclear extract assessed as low level acetylation of H2B at 100 uM after 8 hr by TAU PAGE analysis; type: protein assay
[9] = molecular target: T1, Histone deacetylase (Homo sapiens); assay: Inhibition of histone deacetylase in Homo sapiens (human) HepG2 nuclear extract assessed as hyperacetylation of H3 at 100 uM after 8 hr by TAU PAGE analysis; type: protein assay
[10] = test system: HepG2; assay: Antiproliferative activity against Homo sapiens (human) HepG2 cells at 100 uM after 48 hr by MTT assay; type: functional; details: HepG2, 48 h
[11] = molecular target: T1, Histone deacetylase (Homo sapiens); assay: Inhibition of histone deacetylase in Homo sapiens (human) HepG2 cells at 100 uM after 8 hr by colorimetry; type: cell-based
[12] = molecular target: T1, Histone deacetylase (Homo sapiens); details: HepG2, 1 mM
Description: Inhibition of histone deacetylase in Homo sapiens (human) HepG2 cells at 1 mM after 8 hr by colorimetry

Activity [2]	Activity [4]	Activity [7]	Activity [8]	Activity [9]	inhibition [11]	inhibition [12]	SMILES	cytotoxicity at 48 h, 100 µM [1]	cytotoxicity at 120 h, 100 µM [3]	Activity [5]	inhibition at 100 µM [6]	inhibition at 100 µM [10]
Active	Active	Active	Active	Active	56.9%		O=C1CSC(=O)N1CCCCCCNS(=O)(=O)c1ccccc1	37.5%	55.6%	Active	69.5%	57.3%
						52.3%	CCCC(=O)[O-].[Na+]					
Active	Active	Active	Active	Active	42.1%		O=C(NCCCCCCN1C(=O)CSC1=O)c1ccccc1	34.7%	92.3%	Active	83%	42.3%
